Measurements taken from patent US20110046120A1, “TREATMENT OF IMPULSE CONTROL DISORDERS” (Mclean Hospital Corporation, priority 2006, published 2011).

How the values were obtained:
[1] = test system: α2 adrenoceptor; conditions: cited from earlier work; for effect on yohimbine's effects: α2 agonists, Ghitza et al, 2005, Le et al, Lee et al, 2004
[2] = test system: reward circuitry; assay: fMRI with cardiac gating during low-dose morphine infusions
Description: Normal human reward circuitry was studied during low-dose morphine infusions using fMRI with cardiac gating in an unblinded study. […] Morphine and saline infusions were counter-balanced across subjects, and segregated in separate scan sessions 7 days apart. Four 2 mL infusions were given over 8 minutes, with each infusion lasting 20 seconds. The onset of each infusion was separated by a 2-minute interval. The total morphine dose divided evenly over the 4 infusions was 4 mg/70 kg. Respiratory rate, heart rate, O2 saturation, and end-tidal carbon dioxide concentration in the expired air (ETCO2) were monitored during the experiment in each individual for safety. Subjects were asked to rate their subjective high on a 10-point hedonic rating scale (0=no high; 10=max. high imaginable).

[3] = test system: reward circuitry; assay: cardiac gated fMRI BOLD imaging during cocaine infusion; format: in vivo, human; conditions: cocaine HCl 0.6 mg/kg infusion (max 40 mg), vs pre-infusion baseline, count out of 7 cocaine-dependent subjects
Excerpt: We imaged reward circuitry in humans during cocaine infusion, using cardiac gated fMRI BOLD imaging to compensate for brainstem motion. We further used a clustered volume acquisition with sharpened slice profiles to cluster the acquisition of the brainstem volume and thus reduce the effects of imaging noise on cocaine-induced euphoria and craving. Eleven right-handed men (34±7 years old) with the DSM-IV diagnosis of cocaine dependence were studied. During imaging, subjects underwent a randomized double-blind infusion of either cocaine HCl (0.6 mg/kg up to maximum dose of 40 mg) or saline. Subjects were scanned on an Instascan device (1.5 T General Electric Signa; modified by Advanced NMR Systems, Wilmington, Mass.) using a head coil (General Electric). […] Automated shimming with second order shims was performed to improve Bo field homogeneity. Functional scans utilized cardiac gating with an asymmetric spin echo, T2*-weighted CVA (TR=6 RR, three slices per each of the first two RRs; TE=70; offset=−25 ms; 128×64 matrix; thickness=3.12×3.12 mm, through-plane resolution=7 mm; 200 images/slice). […] Seven matched sets of cocaine and saline infusion scans were interpretable after motion-correction. Statistical maps were constructed using Kolmogorov-Smirnov (KS) statistics and thresholded at the corrected p value for brain regions sampled, p<10-5. […]

[4] = test system: NAc and other stress-associated regions; assay: monetary reward task with fMRI in PG subjects given yohimbine; format: in vivo, human; conditions: vs PG subjects given saline and normal controls
Description: During the gambling paradigm, subjects participated in a game of chance where they actually won or lost money while in the fMRI scanner. Signal changes that anticipate or accompany monetary gains and losses under varying conditions of controlled expectation were evaluated. Specifically, evaluated were: a) an “expectancy phase”, when a promising or unpromising roulette-like spinner (FIG. 4) is presented and b) an “outcome phase” when the arrow lands on one sector of that spinner, and thereby alters the subjects' winnings. It is known that, when applied to healthy controls, this task differentiates the fMRI time courses in the NAc, mPFC and SLEA and in related regions during expectancy vs. outcome phases.
At the start of the game, each subject was given an endowment of $50 and was told that (s)he might lose some or all of this stake, retain it or increase it. Each trial consisted of a “prospect phase”, when a spinner was presented and an “outcome phase” when a sector of the spinner was selected by the arrow and a corresponding amount was added to or subtracted from the subjects' winnings. […] The display was static for the first 0.5 second and then a superimposed arrow began to rotate. […] Only results of the last 18 trials were scored for each run since the initial trial was inserted into the run sequence purely to maintain counterbalancing. […]

[5] = test system: healthy subjects and neuropsychiatric patients; conditions: cited from earlier work
[6] = Guthrie et al, 1990; cited from earlier work
[7] = test system: cocaine-dependent individuals; assay: self-rated subjective responses after intravenous cortisol, cocaine and saline in cocaine dependence; format: in vivo, human
Description: To assess cocaine/stress cross-sensitization, 12 cocaine-dependent individuals (age: 39.8±3.5 years) were administered cortisol (0.2 and 0.5 mg/kg), along with cocaine (0.2 mg/kg) and saline via intravenous boluses, in a double-blind, counterbalanced fashion. The individualized description of subjective responses were categorized into four components: craving, high, rush, and low, which were self-rated on a computerized continuous scale of 0 (none) to 3 (extreme) each minute for two minutes prior and 20 minutes following each infusion. Cocaine craving was proactively defined with the subject, clinically as an urge to use the drug and operationally in terms of the action the individual wanted to engage in to get cocaine. The ratings for high (well-being, self-confidence, and sociability), rush (perception of elevated heart rate and sweating, along with sensations of ‘speeding’), and low (dysphoric affect distinct from the high experience diminishment) were subjectively defined and not necessarily associated with a behavioral response or with the planning of physical activity. […] Cocaine elevated measures of craving (p<0.001); high (p<0.02); rush (p<10-4); and low (p=0.05). Saline produced no significant ratings changes.

[8] = morphine 4 mg/70 kg total, 5 subjects

CCS(=O)(=O)N1CCC[C@@H]2CN3CCc4cc(OC)ccc4[C@@H]3C[C@@H]21.Cl [RS-79948-197]
reproduction of yohimbine's effects ([1]; selective α2 adrenoceptor antagonist, literature): replication of these effects

CN1CC[C@]23c4c5ccc(O)c4O[C@H]2[C@@H](O)C=C[C@H]3[C@H]1C5 [morphine]
adverse side-effects ([2]; morphine 4 mg/70 kg total over 4 infusions, drug naive male subjects): No adverse side-effects | fMRI activation in bilateral NAc and mPFC [2, 8]: significant focal activations | fMRI activation in the amygdala [2, 8]: subthreshold activation | subjective state (hedonic rating) ([2]; morphine 4 mg/70 kg total, data not shown): mild euphoria | fMRI activation in the VT ([2]; morphine 4 mg/70 kg total, with cardiac gating): left VT activation

COC(=O)[C@H]1[C@@H](OC(=O)c2ccccc2)C[C@@H]2CC[C@H]1N2C [cocaine]
subjects with focal positive fMRI signal changes in the right NAc, amygdala, and mPFC [3]: ≥ 5

COC(=O)[C@@H]1[C@H]2C[C@H]3c4[nH]c5ccccc5c4CCN3C[C@@H]2CC[C@@H]1O [yohimbine]
brain activity in the NAc and other stress-associated regions [4]: significantly elevated levels of brain activity | tolerability ([5]; yohimbine 0.125 mg/kg to 0.4 mg/kg intravenous): generally well tolerated | reported adverse effects in clinical trials ([5]; yohimbine clinical trials): elevated blood pressure and heart rate, psychomotor agitation, irritability, tremor, headaches, skin flushing, dizziness, urinary frequency, nausea, vomiting and perspiration | PET brain activity in PTSD subjects ([5]; yohimbine infusions 0.4 mg/kg, ten PTSD subjects vs matched healthy controls, associated with increased anxiety self-reports): deactivations in prefrontal, temporal, parietal, and orbitofrontal cortexes | half-life [6]: about 45 minutes

C[C@]12CCC(=O)C=C1CC[C@@H]1[C@@H]2[C@@H](O)C[C@@]2(C)[C@H]1CC[C@]2(O)C(=O)CO [cortisol]
craving self-rating, time effect ([7]; cortisol 0.2 and 0.5 mg/kg iv bolus, F=3.11, p<0.001): significant increases in craving | craving self-rating, dose effect ([7]; cortisol 0.2 vs 0.5 mg/kg iv, F=0.06, p=0.81): no dose effect

Clc1cccc(Cl)c1N=C1NCCN1 [clonidine]
effect on yohimbine's effects [1]: blockade of yohimbine's effects

CC(Oc1c(Cl)cccc1Cl)C1=NCCN1 (stereo not shown) [lofexidine]
effect on yohimbine's effects [1]: blockade of yohimbine's effects
